# Where a name gives a salt, the structure may show the parent alone. Read-outs that look alike come from different tables or passages of the source.
# Assays:
# [1] = tested on: PC-9 (EGFR del19/T790M/C797S); conditions: J. Med. Chem. 2019, 62, 22, 10272-10293; cited from earlier work
# [2] = target: T1, EGFR (L858R/T790M/C797S) (Homo sapiens, UniProt P00533, C797S/L858R/T790M); assay: Kinase inhibitory activity, 33P-ATP filtration-binding (Reaction Biology Corp.); assay type: biochemical; conditions: read-out: Kinase half-maximal inhibition concentration IC50 EGFR(L858R/T790M/C797S)
# T1 construct: Reaction Biology Corp. (assay performed there)
# Method: Compound assay for kinase inhibitory activity against EGFR (L858R/T790M/C797S), EGFR (del19-E746-A750/T790M/C797S), and EGFR (WT) was done at Reaction Biology Corp. In reaction buffer (20 mM Hepes (pH 7.5), 10 mM magnesium chloride (MgCl2), 1 mM ethylenebis(oxyethylenenitrilo)tetraacetic acid (EGTA), 0.02% polyethylene glycol monododecyl ether (Brij35), 0.02 mg/ml BSA, 0.1 mM sodium vanadate (Na3VO4), 2 mM dithiothreitol (DTT), 1% DMSO), a certain concentration of substances, coenzyme factors, kinases and test compounds (10 doses, 3-fold serial dilutions, 2% DMSO final concentration) were added in sequence, and mixed well. The mixture was incubated at room temperature for 20 minutes. A certain concentration of ^33P-ATP was added to the reaction mixture to initiate reaction, followed by incubation at room temperature for 120 minutes. Finally, the radioactivity of the reactants was detected by filtration-binding method. The final kinase activity was expressed as the ratio of the remaining kinase activity of the test sample to the kinase activity of the DMSO control group. The dose-response relationship curve was fitted and IC50 was calculated using GraphPad software.
# [3] = target: Ba/F3-FL-EGFR (L858R/T790M/C797S) (Homo sapiens, UniProt P00533, T790M/C797S/L858R, cells depend on it); assay: Cell proliferation inhibition, CellTiter-Glo; assay type: cell-based; conditions: 72 hours, read-out: Cell half-maximal inhibition concentration IC50 Ba/F3-FL-EGFR (L858R/T790M/C797S)
# Method: (§1) AdenosineTri-Phosphate (ATP) is an energy carrier shared by various life activities in nature, and is the smallest unit of energy storage and transfer. The CellTiter-Glo™ living cell assay kit uses luciferase as a detector, and luciferase requires the participation of ATP in the process of luminescence. CellTiter-Glo™ reagent is added to a cell culture medium, and the luminescence value is measured. The light signal is directly proportional to the amount of ATP in the system, and ATP is positively correlated with the number of living cells. Therefore, cell proliferation can be detected by detecting ATP content with the CellTiter-Glo kit. In this assay, the cell lines were Ba/F3-FL-EGFR (L858R/T790M/C797S), Ba/F3-FL-EGFR (WT), Ba/F3-FL-EGFR (L858R), Ba/F3-FL-EGFR (del19-S752-I759), Ba/F3-FL-EGFR (del19-E746-A750/T790M/C797S), Ba/F3-FL-EGFR (L858R/T790M), Ba/F3-FL-EGFR (del19-E746-A750/T790M), Ba/F3-TEL-EGFR (L858R/C797S), Ba/F3-FL-EGFR (del19-E746-A750/C797S) stably transfected cell lines.
# (§2) The cell lines were cultured in an incubator at 37° C. and 5% CO2. The cells were periodically passaged, and cells in logarithmic growth phase were taken for plating.
# (§3) a) DMSO was used to prepare a 10 mM solution of the compound to be tested, and then the compound to be tested was diluted to 0.3 or 1 mM with DMSO.
# (§4) b) Preparation of 1000× compound storage plate (tube): DMSO was used to dilute by 3-fold gradient from the highest concentration to the lowest concentration, with a total of 9 concentrations.
# (§5) c) Preparation of 20× compound working solution: 49 μL of cell culture medium was added to a flat-bottomed 96-well transparent drug plate, and 1 μL of compound was pipetted from the 1000× compound storage plate to the cell culture medium of the 96-well transparent drug plate. 1 μL of DMSO was added to the vehicle control. After adding compound or DMSO, the well content was mixed to uniform by aspiration and expelling with pipette.
# (§6) a) Cells were stained with trypan blue and viable cells were counted. The cell viability rate was required to be above 90%.
# (§7) b) 95 μL of cell suspension (2000 cells/well) was added to each well of the compound detection cell plate, and culture medium without cells (containing 0.1% DMSO) was added to the Min control well.
# (§8) c) Dosing in the compound detection cell plate: 5 μL of 20× compound working solution was added to the cell culture plate. 5 μL of DMSO-cell culture mixture was added to the Max control. The final concentration of DMSO was 0.1%.
# (§9) d) The culture plate was incubated in an incubator at 37° C., 5% CO2 for 72 hours.
# (§10) Cell proliferation inhibition rate (Inhibition Rate) data were processed using the following formula:
# Inhibition Rate (Inh %)=100−(RLUDrug−RLUMin)/(RLUMax−RLUMin)*100%.
# The inhibition rates corresponding to different concentrations of compounds were calculated, and then GraphPad Prism software was used to draw the inhibition rate curve and the IC50 value was calculated.
# [4] = target: Ba/F3-FL-EGFR (L858R) (Homo sapiens, UniProt P00533, L858R, cells depend on it); assay: Cell proliferation inhibition, CellTiter-Glo; assay type: cell-based; conditions: 72 hours, read-out: Cell half-maximal inhibition concentration IC50 Ba/F3-FL-EGFR (L858R)
# Method: as §1, §2, §3, §4, §5, §6, §7, §8, §9
# (§11) The following steps were performed according to the instruction of Promega CellTiter-Glo luminescence cell viability detection kit (Promega-G7573). • a) The CellTiter-Glo buffer was thawed and allowed to stand to reach room temperature; • b) CellTiter-Glo substrate was allowed to stand to reach room temperature; • c) CellTiter-Glo buffer was added to CellTiter-Glo substrate in a bottle to dissolve the substrate to formulate CellTiter-Glo working solution; • d) The working solution was vortexed slowly for fully dissolution; • e) The cell culture plates were taken out and allowed to stand for 10 minutes to equilibrate to room temperature; • f) 50 μL (equal to half the volume of cell culture solution in each well) of Cell Titer-Glo working solution was added into each well. • g) The culture plates were shaken on an orbital shaker for 2 minutes to induce cell lysis; • h) The culture plates were left at room temperature for 10 minutes to stabilize the luminescence signal; • i) The luminous signal was detected on the PerkinElmer EnVision®2105 plate reader.
# (§12) By PerkinElmer EnVision®2105 reading, the corresponding […] value RLU for each well was yielded.
# as §10
# (§13) Inhibition Rate (Inh %)=100−(RLUDrug−RLUMin)/(RLUMax−RLUMin)*100%. […]
# [5] = target: Ba/F3-FL-EGFR (WT) (Homo sapiens, UniProt P00533); assay: Cell proliferation inhibition, CellTiter-Glo; assay type: cell-based; conditions: 72 hours, read-out: Cell half-maximal inhibition concentration IC50 Ba/F3-FL-EGFR (WT)
# Method: as §1, §2, §3, §4, §5, §6, §7, §8, §9, §11, §12, §10, §13
# [6] = target: Ba/F3-FL-EGFR (del19-E746-A750/T790M/C797S) (Homo sapiens, UniProt P00533, DEL746-750/T790M/C797S, cells depend on it); assay: Cell proliferation inhibition, CellTiter-Glo; assay type: cell-based; conditions: 72 hours, read-out: Cell half-maximal inhibition concentration IC50 Ba/F3-FL-EGFR (del19-E746-A750/T790M/C797S)
# Method: as §1, §2, §3, §4, §5, §6, §7, §8, §9, §11, §12, §10, §13
# [7] = target: Ba/F3-FL-EGFR (del19-S752-I759) (Homo sapiens, UniProt P00533, DEL752-759, cells depend on it); assay: Cell proliferation inhibition, CellTiter-Glo; assay type: cell-based; conditions: 72 hours, read-out: Cell half-maximal inhibition concentration IC50 Ba/F3-FL-EGFR (del19-S752-I759)
# Method: as §1, §2, §3, §4, §5, §6, §7, §8, §9, §11, §12, §10, §13
# T1 sequence (P00533 25-1210 T790M/C797S/L858R): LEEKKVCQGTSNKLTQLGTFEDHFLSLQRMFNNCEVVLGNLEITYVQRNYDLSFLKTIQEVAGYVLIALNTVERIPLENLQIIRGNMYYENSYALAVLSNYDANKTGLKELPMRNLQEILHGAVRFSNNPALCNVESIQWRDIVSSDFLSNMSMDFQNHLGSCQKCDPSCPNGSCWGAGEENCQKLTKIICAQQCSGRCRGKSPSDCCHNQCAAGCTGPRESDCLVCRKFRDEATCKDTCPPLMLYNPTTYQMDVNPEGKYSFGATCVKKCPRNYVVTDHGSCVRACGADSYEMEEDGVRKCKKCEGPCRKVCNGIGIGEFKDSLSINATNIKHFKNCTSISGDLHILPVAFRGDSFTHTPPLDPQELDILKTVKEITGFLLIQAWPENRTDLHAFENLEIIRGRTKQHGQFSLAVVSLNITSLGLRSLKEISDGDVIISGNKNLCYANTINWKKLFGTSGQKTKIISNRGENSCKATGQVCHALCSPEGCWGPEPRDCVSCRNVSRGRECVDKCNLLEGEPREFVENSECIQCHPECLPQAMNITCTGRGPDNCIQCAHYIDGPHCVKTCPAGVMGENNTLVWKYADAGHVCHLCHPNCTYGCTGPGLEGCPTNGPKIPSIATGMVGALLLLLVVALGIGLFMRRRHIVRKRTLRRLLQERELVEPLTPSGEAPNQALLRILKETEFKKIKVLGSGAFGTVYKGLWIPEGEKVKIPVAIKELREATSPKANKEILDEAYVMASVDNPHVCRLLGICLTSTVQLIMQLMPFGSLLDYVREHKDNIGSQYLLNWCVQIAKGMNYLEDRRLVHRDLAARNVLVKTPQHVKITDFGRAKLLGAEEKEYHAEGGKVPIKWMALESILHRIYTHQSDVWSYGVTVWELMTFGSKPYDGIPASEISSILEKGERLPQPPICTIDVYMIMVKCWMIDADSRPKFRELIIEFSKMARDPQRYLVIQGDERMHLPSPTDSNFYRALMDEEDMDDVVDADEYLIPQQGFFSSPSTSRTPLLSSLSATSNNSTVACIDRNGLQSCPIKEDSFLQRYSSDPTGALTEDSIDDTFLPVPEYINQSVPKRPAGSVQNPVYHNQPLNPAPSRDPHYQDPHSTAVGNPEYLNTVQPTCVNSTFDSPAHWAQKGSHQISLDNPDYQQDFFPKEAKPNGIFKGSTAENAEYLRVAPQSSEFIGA
# Ba/F3-FL-EGFR (L858R/T790M/C797S), sequence (P00533 whole entry T790M/C797S/L858R): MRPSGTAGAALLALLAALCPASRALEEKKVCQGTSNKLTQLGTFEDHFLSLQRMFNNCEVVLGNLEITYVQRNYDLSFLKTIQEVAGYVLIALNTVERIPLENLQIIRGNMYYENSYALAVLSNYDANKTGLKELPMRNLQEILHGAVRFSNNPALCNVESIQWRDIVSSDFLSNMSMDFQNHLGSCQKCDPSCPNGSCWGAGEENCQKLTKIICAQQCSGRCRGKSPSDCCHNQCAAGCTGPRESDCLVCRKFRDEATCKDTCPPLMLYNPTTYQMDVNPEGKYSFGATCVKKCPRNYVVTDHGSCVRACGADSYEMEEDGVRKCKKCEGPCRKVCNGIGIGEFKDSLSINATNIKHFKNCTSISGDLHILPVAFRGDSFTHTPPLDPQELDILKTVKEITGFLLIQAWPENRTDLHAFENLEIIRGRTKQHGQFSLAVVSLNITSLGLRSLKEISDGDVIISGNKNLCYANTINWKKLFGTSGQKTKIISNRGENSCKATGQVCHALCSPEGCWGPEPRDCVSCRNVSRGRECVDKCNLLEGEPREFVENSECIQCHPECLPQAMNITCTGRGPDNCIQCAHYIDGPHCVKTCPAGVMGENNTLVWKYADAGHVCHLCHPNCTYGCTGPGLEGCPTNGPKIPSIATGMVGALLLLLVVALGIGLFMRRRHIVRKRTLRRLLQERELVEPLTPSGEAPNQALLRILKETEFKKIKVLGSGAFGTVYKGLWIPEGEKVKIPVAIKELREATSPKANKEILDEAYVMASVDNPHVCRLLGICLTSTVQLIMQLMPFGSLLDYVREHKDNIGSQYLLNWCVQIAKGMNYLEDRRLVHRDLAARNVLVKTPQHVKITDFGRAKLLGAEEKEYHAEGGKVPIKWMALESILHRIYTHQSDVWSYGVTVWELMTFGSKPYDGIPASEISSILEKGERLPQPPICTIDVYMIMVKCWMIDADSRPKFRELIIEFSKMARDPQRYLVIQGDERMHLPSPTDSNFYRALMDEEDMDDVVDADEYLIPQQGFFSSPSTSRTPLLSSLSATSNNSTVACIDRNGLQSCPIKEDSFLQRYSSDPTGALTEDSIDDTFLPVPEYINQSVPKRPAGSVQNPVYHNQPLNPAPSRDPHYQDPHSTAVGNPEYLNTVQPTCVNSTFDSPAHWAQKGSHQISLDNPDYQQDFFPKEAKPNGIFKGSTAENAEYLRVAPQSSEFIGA
# Ba/F3-FL-EGFR (del19-E746-A750/T790M/C797S), sequence (P00533 with tags, fused parts or gaps DEL746-750/T790M/C797S): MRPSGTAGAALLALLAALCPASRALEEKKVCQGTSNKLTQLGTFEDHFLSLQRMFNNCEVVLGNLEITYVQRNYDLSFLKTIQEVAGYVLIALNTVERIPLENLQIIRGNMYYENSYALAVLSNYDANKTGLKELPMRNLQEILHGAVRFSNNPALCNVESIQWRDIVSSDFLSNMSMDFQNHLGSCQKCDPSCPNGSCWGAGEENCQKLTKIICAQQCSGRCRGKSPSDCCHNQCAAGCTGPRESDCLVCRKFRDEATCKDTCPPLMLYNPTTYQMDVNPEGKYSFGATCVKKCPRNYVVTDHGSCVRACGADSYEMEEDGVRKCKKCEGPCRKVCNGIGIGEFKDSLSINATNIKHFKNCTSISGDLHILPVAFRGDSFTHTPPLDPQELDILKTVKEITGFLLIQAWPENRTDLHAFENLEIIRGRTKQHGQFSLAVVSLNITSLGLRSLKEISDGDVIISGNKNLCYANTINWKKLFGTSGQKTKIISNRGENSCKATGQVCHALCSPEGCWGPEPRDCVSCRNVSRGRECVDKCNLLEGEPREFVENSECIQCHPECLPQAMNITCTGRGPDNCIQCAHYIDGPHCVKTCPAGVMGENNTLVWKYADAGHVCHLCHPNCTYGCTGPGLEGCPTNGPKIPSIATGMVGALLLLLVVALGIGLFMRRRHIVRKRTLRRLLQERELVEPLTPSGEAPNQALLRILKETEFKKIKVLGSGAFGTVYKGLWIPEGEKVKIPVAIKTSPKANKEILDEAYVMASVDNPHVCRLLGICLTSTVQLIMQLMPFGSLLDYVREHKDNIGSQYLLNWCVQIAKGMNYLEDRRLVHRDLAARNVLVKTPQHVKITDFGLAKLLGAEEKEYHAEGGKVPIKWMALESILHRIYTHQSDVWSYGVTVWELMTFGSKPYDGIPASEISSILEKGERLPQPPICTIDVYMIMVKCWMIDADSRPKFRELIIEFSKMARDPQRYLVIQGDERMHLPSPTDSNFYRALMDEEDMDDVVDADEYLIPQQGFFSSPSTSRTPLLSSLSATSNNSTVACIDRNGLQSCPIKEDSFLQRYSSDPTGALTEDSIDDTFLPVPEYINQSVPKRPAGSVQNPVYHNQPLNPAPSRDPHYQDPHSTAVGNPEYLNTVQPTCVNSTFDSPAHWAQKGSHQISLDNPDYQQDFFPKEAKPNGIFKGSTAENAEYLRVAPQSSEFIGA
# Ba/F3-FL-EGFR (L858R), sequence (P00533 whole entry L858R): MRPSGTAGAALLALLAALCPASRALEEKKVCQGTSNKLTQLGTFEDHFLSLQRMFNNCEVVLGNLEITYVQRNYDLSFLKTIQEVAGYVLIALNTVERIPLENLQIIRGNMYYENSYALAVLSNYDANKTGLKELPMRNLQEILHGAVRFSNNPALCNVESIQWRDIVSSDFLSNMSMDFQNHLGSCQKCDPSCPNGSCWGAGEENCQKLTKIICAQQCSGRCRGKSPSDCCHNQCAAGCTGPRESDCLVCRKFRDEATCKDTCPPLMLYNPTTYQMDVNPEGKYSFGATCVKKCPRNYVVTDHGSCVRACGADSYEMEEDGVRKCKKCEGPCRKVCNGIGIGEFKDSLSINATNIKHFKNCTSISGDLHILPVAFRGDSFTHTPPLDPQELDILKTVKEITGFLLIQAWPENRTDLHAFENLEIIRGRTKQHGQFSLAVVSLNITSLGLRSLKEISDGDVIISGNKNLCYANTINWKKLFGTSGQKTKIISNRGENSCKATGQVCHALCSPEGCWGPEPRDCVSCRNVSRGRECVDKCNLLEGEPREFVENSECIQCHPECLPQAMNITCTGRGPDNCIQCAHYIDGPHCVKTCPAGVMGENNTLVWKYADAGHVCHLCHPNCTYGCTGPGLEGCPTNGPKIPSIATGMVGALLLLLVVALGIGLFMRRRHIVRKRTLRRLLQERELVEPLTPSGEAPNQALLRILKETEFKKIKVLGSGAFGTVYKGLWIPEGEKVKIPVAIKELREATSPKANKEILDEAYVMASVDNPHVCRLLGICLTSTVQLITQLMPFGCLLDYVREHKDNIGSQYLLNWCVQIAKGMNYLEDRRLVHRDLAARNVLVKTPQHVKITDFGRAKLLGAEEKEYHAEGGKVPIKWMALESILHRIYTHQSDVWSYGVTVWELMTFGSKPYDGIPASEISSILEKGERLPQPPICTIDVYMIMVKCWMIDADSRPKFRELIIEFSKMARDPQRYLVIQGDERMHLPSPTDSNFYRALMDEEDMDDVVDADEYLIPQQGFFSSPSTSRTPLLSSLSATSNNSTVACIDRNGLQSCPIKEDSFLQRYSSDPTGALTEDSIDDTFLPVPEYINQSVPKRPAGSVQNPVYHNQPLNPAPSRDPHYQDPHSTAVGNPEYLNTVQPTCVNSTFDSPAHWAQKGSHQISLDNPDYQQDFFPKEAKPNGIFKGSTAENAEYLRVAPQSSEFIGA
GI50 [3] [nM],Structure (SMILES),further results
,Cc1cc2cc(n1)-c1cnn(C)c1OCCC[C@@H](C)Cn1c(nc3ccc(CN4CCN(C)CC4)cc31)NC2=O [BI-4020],Anti-tumor efficacy [1]: good anti-tumor efficacy
,Cc1cc2cc(n1)-c1cnn(C)c1OCCC[C@@H](C)CN1/C(=N/C2=O)Nc2ccc(P(C)(C)=O)cc21 [WX-001 (trifluoroacetate)],IC50 ([2]; ATP 10 μM): 0.159 nM; IC50 ([2]; ATP 100 μM): 1.17 nM
,CCS(=O)(=O)c1ccc2c(c1)N1C[C@H](C)CCCOc3c(cnn3C)-c3cc(cc(C)n3)C(=O)/N=C/1N2 [WX-002 (formate)],IC50 ([2]; ATP 10 μM): 0.468 nM
,CCP(=O)(CC)c1ccc2c(c1)N1C[C@H](C)CCCOc3c(cnn3C)-c3cc(cc(C)n3)C(=O)/N=C/1N2 [WX-004 (trifluoroacetate)],IC50 ([2]; ATP 100 μM): 1.75 nM
7.2,Cc1cc2cc(n1)-c1cnn(C)c1OCCC[C@@H](C)CN1/C(=N/C2=O)Nc2ccc(P(=O)(C(C)C)C(C)C)cc21 [WX-005 (trifluoroacetate)],IC50 ([2]; ATP 100 μM): 1.63 nM
2.3,Cc1cc2cc(n1)-c1cnn(C)c1OCCC[C@@H](C)CN1/C(=N/C2=O)Nc2ccc(N=S(C)(C)=O)cc21 [WX-006 (trifluoroacetate)],IC50 ([2]; ATP 100 μM): 0.831 nM
4.4,Cc1cc2cc(n1)-c1cnn(C)c1OCCC[C@@H](C)CN1/C(=N/C2=O)Nc2ccc(N=S3(=O)CCCCC3)cc21 [WX-011],
7.3,CCS(=O)(CC)=Nc1ccc2c(c1)N1C[C@H](C)CCCOc3c(cnn3C)-c3cc(cc(C)n3)C(=O)/N=C/1N2 [WX-012 (hydrochloride)],
14.3,Cc1cc2cc(n1)-c1cnn(C)c1OCCC[C@@H](C)CN1/C(=N/C2=O)Nc2ccc(N=S3(=O)CCNCC3)cc21 [WX-014],GI50 [4]: 53.9 nM; GI50 [5]: 421 nM; GI50 [6]: 2.9 nM; GI50 [7]: 38.1 nM
10.6,Cc1cc2cc(n1)-c1cnn(C)c1OCCC[C@@H](C)CN1/C(=N/C2=O)Nc2ccc(N=S3(=O)CCN(C)CC3)cc21 [WX-015],
12.7,Cc1cc2cc(n1)-c1cnn(C)c1OCCC[C@@H](C)CN1/C(=N/C2=O)Nc2ccc(N=S3(=O)CCN(C4CCN(C)CC4)CC3)cc21 [WX-022],
2.7,Cc1cc2cc(n1)-c1cnn(C)c1OCCC[C@@H](C)CN1/C(=N/C2=O)Nc2ccc(N=S3(=O)CCC4(CCN(C)CC4)CC3)cc21 [WX-023],
1.4,Cc1cc2cc(n1)-c1cnn(C)c1OCCC[C@@H](C)CN1/C(=N/C2=O)Nc2ccc(N=S3(=O)CC4CN(C)CC4C3)cc21 (some centres unmarked) [WX-024],
5.7,Cc1cc2cc(n1)-c1cnn(C)c1OCCC[C@@H](C)CN1/C(=N/C2=O)Nc2ccc(N=S3(=O)CC4(COC4)C3)cc21 [WX-025],
11.6,Cc1cc2cc(n1)-c1cnn(C)c1OCCC[C@@H](C)CN1/C(=N/C2=O)Nc2ccc(N=S3(=O)CCC(N4CCN(C)CC4)CC3)cc21 (some centres unmarked) [WX-026],
3.3,Cc1cc2cc(n1)-c1cnn(C)c1OCCC[C@@H](C)CN1/C(=N/C2=O)Nc2ccc(N=S3(=O)CCC4(CCOCC4)CC3)cc21 [WX-028],
5.5,Cc1cc2cc(n1)-c1cnn(C)c1OCCC[C@@H](C)CN1/C(=N/C2=O)Nc2ccc(N=S3(=O)CCC4(CC3)COC4)cc21 [WX-029],
13,Cc1cc2cc(n1)-c1cnn(C)c1OCCC[C@@H](C)CN1/C(=N/C2=O)Nc2ccc(N=S3(=O)CCN(C4COC4)CC3)cc21 [WX-030],
2.1,Cc1cc2cc(n1)-c1cnn(C)c1OCCC[C@@H](C)CN1/C(=N/C2=O)Nc2ccc(N=S3(=O)CCC4(CC3)CN(C)C4)cc21 [WX-031],
